These results are taken from patent publication US12692262B2, “Substituted ureas as orexin receptor agonists” (Merck Sharp & Dohme LLC, priority 2020, dated 2026).

In the assay the target is T1, human OX2R (Homo sapiens, UniProt O43614).
T1 construct: expressed in transfected cells; host or cells: CHO (Chinese hamster ovary) cells grown under G418 selection
T1 sequence (O43614 1-444): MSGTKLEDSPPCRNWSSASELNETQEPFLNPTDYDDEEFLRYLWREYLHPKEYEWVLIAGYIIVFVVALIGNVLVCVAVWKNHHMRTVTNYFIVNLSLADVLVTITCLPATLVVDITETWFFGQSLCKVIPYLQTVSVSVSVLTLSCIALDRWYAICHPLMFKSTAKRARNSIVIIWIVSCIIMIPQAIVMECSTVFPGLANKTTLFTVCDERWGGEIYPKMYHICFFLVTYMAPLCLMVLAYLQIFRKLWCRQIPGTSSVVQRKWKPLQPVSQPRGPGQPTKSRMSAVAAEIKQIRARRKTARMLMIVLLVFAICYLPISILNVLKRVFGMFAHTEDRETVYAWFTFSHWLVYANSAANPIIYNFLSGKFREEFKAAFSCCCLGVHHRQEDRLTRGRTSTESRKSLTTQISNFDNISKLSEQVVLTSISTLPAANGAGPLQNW
The assay can be described thus: IPOne (IP-1 accumulation) assay in CHO cells expressing human OX2R. It counts as cell-based. As to conditions: for EC50: CHO cells expressing human OX2R, IP-One assay, 2 h incubation, four parameter logistic fit, read-out: OX2R Potency, EC50; for % of maximum agonist effect (relative to Orexin A): percent effect vs mean max effect of a reference compound at 1 uM (100% activity vs Orexin A), human OX2R. An excerpt:
The utility of the compounds in accordance with the present invention as orexin receptor OX1R and/or OX2R agonists may be readily determined without undue experimentation by methodology well known in the art. Both the OX1R and/or OX2R G-coupled protein receptors (GPCRs) couple through the Gαq signaling pathway, which ultimately promotes calcium mobilization via inositol triphosphate (IP3) production. […] The utility of the compounds in accordance with the present invention as orexin receptor OX1R and/or OX2R agonists may be determined utilizing this assay.
In a typical experiment, the OX1 and OX2 receptor agonist activity is determined in accordance with the following general experimental method. Chinese hamster ovary (CHO) cells expressing human OX1R and/or the human OX2R were grown in Iscove's modified DMEM containing glutaMAX™, 1% G418, 100 U/mL penicillin, 100 μg/mL streptomycin and 10% heat-inactivated qualified fetal bovine serum (FBS). […] During this incubation, IP-one detection reagents were prepared (38:1:1 lysis buffer:D2:AB-cryptate reagents).
For each compound, data were fit to a four parameter logistic fit (ActivityBase software) and the EC50 was reported as the inflection point of the resulting curve. […] The intrinsic orexin receptor agonist activity of a compound which may be used in the present invention may be determined by these assays.

For the compound `COc1cnc([C@H](N(C(=O)N[C@@H](CCC(F)(F)F)C(F)(F)F)C2CC2)C(F)(F)F)cc1-c1cn2cc(C)nc2c(OC)n1` [Example 2-19, 1-cyclopropyl-3-((S)-1,1,1,5,5,5-hexafluoropentan-2-yl)-1-(2,2,2-trifluoro-1-(5-methoxy-4-(8-methoxy-2-methylimidazo[1,2-a]pyrazin-6-yl)pyridin-2-yl)ethyl)urea], the EC50 is 5.7 nM and the “% of maximum agonist effect (relative to Orexin A)” value is 102.0%.
Taken in the same sequence, the figures for `CC[C@H](CCC(F)(F)F)NC(=O)N(CC(F)F)C(c1cc(-c2cn3ncnc3c(OC)n2)c(OC)cn1)C(F)(F)F` (stereo partly drawn) [Example 2-20, 1-(2,2-difluoroethyl)-1-(2,2,2-trifluoro-1-(5-methoxy-4-(8-methoxy-[1,2,4]triazolo[1,5-a]pyrazin-6-yl)pyridin-2-yl)ethyl)-3-((R)-6,6,6-trifluorohexan-3-yl)urea] were 341 nM and 99.7%.
Taken in the same sequence, the figures for `CC[C@H](CCC(F)(F)F)NC(=O)N(CC)[C@@H](c1cc(-c2cn3ccnc3c(OC)n2)c(OC)cn1)C(F)(F)F` [Example 2-21, 1-ethyl-1-((S)-2,2,2-trifluoro-1-(5-methoxy-4-(8-methoxyimidazo[1,2-a]pyrazin-6-yl)pyridin-2-yl)ethyl)-3-((R)-6,6,6-trifluorohexan-3-yl)urea] were 0.8 nM and 99.6%.
Taken in the same sequence, the figures for `CCN(C(=O)N[C@@H](CCC(F)(F)F)C(F)(F)F)[C@@H](c1cccc(-c2cn3ccnc3c(OC)n2)c1)C(F)(F)F` [Example 2-22, N-ethyl-N′-[(2S)-1,1,1,5,5,5-hexafluoropentan-2-yl]-N-{2,2,2-trifluoro-1-[3-(8-methoxyimidazo[1,2-a]pyrazin-6-yl)phenyl]ethyl}urea] were 2.8 nM and 101.5%.
Regarding `CCN(C(=O)N[C@@H](CCC(F)(F)F)C(F)(F)F)[C@@H](c1ccc(OC)c(-c2ccc3nccn3c2)c1)C(F)(F)F` [Example 2-23, 1-ethyl-3-((S)-1,1,1,5,5,5-hexafluoropentan-2-yl)-1-((S)-2,2,2-trifluoro-1-(3-(imidazo[1,2-a]pyridin-6-yl)-4-methoxyphenyl)ethyl)urea], the EC50 was 2.7 nM and the “% of maximum agonist effect (relative to Orexin A)” value worked out at 100.8%.
Taken in the same sequence, the figures for `CCN(C(=O)NC(C)(C)C#N)[C@H](C)c1cccc(-c2cn3ccnc3c(OC)n2)c1` [Example 2-25, (R)-3-(2-cyanopropan-2-yl)-1-ethyl-1-(1-(3-(8-methoxyimidazo[1,2-a]pyrazin-6-yl)phenyl)ethyl)urea] were 360 nM and 98.0%.
In the case of `CCN(C(=O)NC(C)c1nc(C)no1)[C@@H](c1cc(-c2cn3ccnc3c(OC)n2)c(OC)cn1)C(F)(F)F` (stereo partly drawn) [Example 2-26, 1-ethyl-3-(1-(3-methyl-1,2,4-oxadiazol-5-yl)ethyl)-1-((S)-2,2,2-trifluoro-1-(5-methoxy-4-(8-methoxyimidazo[1,2-a]pyrazin-6-yl)pyridin-2-yl)ethyl)urea], the EC50 was 8.6 nM and the “% of maximum agonist effect (relative to Orexin A)” value amounted to 100.5%.
Taken in the same sequence, the figures for `CCN(C(=O)N[C@@H]1C[C@@]1(C)C(F)(F)F)[C@@H](c1cc(-c2cn3ccnc3c(OC)n2)c(OC)cn1)C(F)(F)F` [Example 2-27, 1-ethyl-3-((1R,2R)-2-methyl-2-(trifluoromethyl)-cyclopropyl)-1-((S)-2,2,2-trifluoro-1-(5-methoxy-4-(8-methoxyimidazo[1,2-a]pyrazin-6-yl)pyridin-2-yl)ethyl)urea] were 9.4 nM and 101.1%.
Taken in the same sequence, the figures for `CCN(C(=O)N[C@@H](C(C)(C)C)C(F)(F)F)[C@@H](c1cc(-c2cn3ccnc3c(OC)n2)c(OC)cn1)C(F)(F)F` [Example 2-28, 1-ethyl-1-((S)-2,2,2-trifluoro-1-(5-methoxy-4-(8-methoxyimidazo[1,2-a]pyrazin-6-yl)pyridin-2-yl)ethyl)-3-((S)-1,1,1-trifluoro-3,3-dimethylbutan-2-yl)urea] were 16.1 nM and 99.1%.
Taken in the same sequence, the figures for `CCN(C(=O)NC(C)C)[C@@H](c1cc(-c2cn3ccnc3c(OC)n2)c(OC)cn1)C(F)(F)F` [Example 2-29, (S)-1-ethyl-3-isopropyl-1-(2,2,2-trifluoro-1-(5-methoxy-4-(8-methoxyimidazo[1,2-a]pyrazin-6-yl)pyridin-2-yl)ethyl)urea] were 23.8 nM and 96.0%.
`CCN(C(=O)NC1CC(CC(F)(F)F)C1)[C@@H](c1cc(-c2cn3ccnc3c(OC)n2)c(OC)cn1)C(F)(F)F` (stereo partly drawn) [Example 2-30, (S)-1-ethyl-1-(2,2,2-trifluoro-1-(5-methoxy-4-(8-methoxyimidazo[1,2-a]pyrazin-6-yl)pyridin-2-yl)ethyl)-3-(3-(2,2,2-trifluoroethyl)cyclobutyl)urea]: the EC50 worked out at 34.6 nM and the “% of maximum agonist effect (relative to Orexin A)” value was found to be 99.0%.
Taken in the same sequence, the figures for `CCN(C(=O)N[C@]1(C)C[C@H]1C(F)(F)F)[C@@H](c1cc(-c2cn3ccnc3c(OC)n2)c(OC)cn1)C(F)(F)F` [Example 2-31, 1-ethyl-3-((1R,2R)-1-methyl-2-(trifluoromethyl)cyclopropyl)-1-((S)-2,2,2-trifluoro-1-(5-methoxy-4-(8-methoxyimidazo[1,2-a]pyrazin-6-yl)pyridin-2-yl)ethyl)urea] were 35.1 nM and 99.0%.
Taken in the same sequence, the figures for `CCN(C(=O)NC1CC1)[C@@H](c1cc(-c2cn3ccnc3c(OC)n2)c(OC)cn1)C(F)(F)F` [Example 2-32, (S)-3-cyclopropyl-1-ethyl-1-(2,2,2-trifluoro-1-(5-methoxy-4-(8-methoxyimidazo[1,2-a]pyrazin-6-yl)pyridin-2-yl)ethyl)urea] were 40.8 nM and 101.0%.
Taken in the same sequence, the figures for `CCN(C(=O)NC(C1CC(F)(F)CCO1)C(F)(F)F)[C@H](C)c1cccc(-c2cn3ccnc3c(OC)n2)c1` (stereo partly drawn) [Example 2-33, 3-(1-(4,4-difluorotetrahydro-2H-pyran-2-yl)-2,2,2-trifluoroethyl)-1-ethyl-1-((R)-1-(3-(8-methoxyimidazo[1,2-a]pyrazin-6-yl)phenyl)ethyl)urea] were 0.8 nM and 101.6%.
On to `CCN(C(=O)NC(CC(C)=O)C(F)(F)F)[C@@H](c1cc(-c2cn3ccnc3c(OC)n2)c(OC)cn1)C(F)(F)F` (stereo partly drawn) [Example 2-34, 1-ethyl-1-((S)-2,2,2-trifluoro-1-(5-methoxy-4-(8-methoxyimidazo[1,2-a]pyrazin-6-yl)pyridin-2-yl)ethyl)-3-(1,1,1-trifluoro-4-oxopentan-2-yl)urea], for which the EC50 was determined as 2.7 nM and the “% of maximum agonist effect (relative to Orexin A)” value stood at 101.1%.
Taken in the same sequence, the figures for `CCN(C(=O)N[C@@H](CCC#N)C(F)(F)F)[C@@H](c1cc(-c2cn3ccnc3c(OC)n2)c(OC)cn1)C(F)(F)F` [Example 2-35, 3-((S)-4-cyano-1,1,1-trifluorobutan-2-yl)-1-ethyl-1-((S)-2,2,2-trifluoro-1-(5-methoxy-4-(8-methoxyimidazo[1,2-a]pyrazin-6-yl)pyridin-2-yl)ethyl)urea] were 0.9 nM and 102.3%.
